# Assay results: patent US20260256145A1, “IRON AGENT FOR GROWING ANIMALS AND PLANTS, METHOD FOR PRODUCING THE SAME, AND IRON SUPPLY PREPARATION FOR GROWING ANIMALS AND PLANTS” (Sobue Clay Co., Ltd., priority 2023, published 2026)
# Assays:
# [1] = system: plants; assay: Consideration of Use Examples 1 to 6: plant weight index versus no iron agent; format: in vivo; conditions: no irrigation with an iron agent = 100, based on Use Examples 1 to 6
# Method: (§1) An aqueous solution of sodium ferrous citrate to be irrigated was prepared by adding 150 g of citric acid to 850 ml of tap water to produce citric acid water, then adding thereto 25 g of reduced iron powder, followed by stirring, and then adding to the resultant mixture 150 g of sodium hydrogen carbonate, followed by stirring and mixing.
# The following consideration is made based on the results of Use Examples 1 to 6.
# When the index in the case of no irrigation with an iron agent is 100, with respect to the plant's aboveground weight, it is 116 in the case of the irrigation with the aqueous solution of iron citrate and 209 in the case of the irrigation with the aqueous solution of sodium ferrous citrate, and with respect to the plant's root weight, it is 134 in the case of the irrigation with the aqueous solution of iron citrate and 464 in the case of the irrigation with the aqueous solution of sodium ferrous citrate.
# [2] = Change of Fe2+ ion concentration of the aqueous solution in the production process; format: physicochemical; conditions: iron mixed with the citrate solution while stirring, FIGS. 1 to 4
# Method: The aqueous solution of iron citrate is prepared by any one of the following methods: a method in which citric acid, solid iron and water are stirred and mixed together; a method in which solid iron is added to citric acid having been dissolved in water, followed by stirring and mixing; and a method in which solid iron and citric acid powder are added to a required amount of citric acid having been dissolved in water, followed by stirring and mixing while, if necessary, heating. To the thus obtained aqueous solution of iron citrate is mixed sodium hydrogen carbonate while, if necessary, heating, thereby producing an aqueous solution of sodium ferrous citrate. By the addition of sodium hydrogen carbonate, the aqueous solution of sodium ferrous citrate has been alkalized to have a pH value of from 5 to 8.
# FIGS. 2 to 4 respectively show the change of the Fe^2+ ion concentration of aqueous iron agent solutions 1 to 3 for growth, each of which is produced by the above-mentioned method. […] Therefore, it is judged that the aqueous iron citrate solution is not suitable as an iron agent for growth.
# In the cases of aqueous sodium ferrous citrate solutions 1 to 3 shown in FIGS. 2 to 4, the Fe^2+ ion concentration is confirmed to increase, differing from the case of the aqueous iron citrate solution shown in FIG. 1. […]
# [3] = system: parsley; assay: Use Example 5: growth of parsley irrigated with iron agent; format: in vivo; conditions: irrigation once a week, after 19 days of cultivation, in comparison with the other plants
# Method: as §1
# (§2) Plants not irrigated with an iron agent (left side of the figure), plants irrigated with an aqueous solution of iron citrate (center of the figure), and plants irrigated with an aqueous solution of sodium citrate (right side of the figure) as the iron supply preparation for growth of the present application were provided, and the plants were cultivated while performing irrigation on the plants at a rate of once a week, and the growth conditions after 19 days of cultivation are shown. Each of the aqueous solution of iron citrate and the aqueous solution of sodium ferrous citrate was diluted 10000 times so that the total iron content was 15000 ppm, and the Fe^2+ content was 3000 ppm for iron citrate and 12500 ppm for sodium ferrous citrate.
# [4] = system: komatsuna (Japanese mustard spinach); assay: Use Example 2: growth of komatsuna irrigated with iron agent; format: in vivo; conditions: irrigation once a week, after 23 days of cultivation, in comparison with the other plants
# Method: as §1
# as §2, with “23” for “19”
# [5] = system: Italian parsley; assay: Use Example 6: growth of Italian parsley irrigated with iron agent; format: in vivo; conditions: irrigation once a week, after 19 days of cultivation, in comparison with the other plants
# Method: as §1, §2
# [6] = system: okra; assay: Use Example 3: growth of okra irrigated with iron agent; format: in vivo; conditions: irrigation once a week, after 19 days of cultivation, in comparison with the other plants
# Method: as §1, §2
# [7] = system: red leaf lettuce; assay: Use Example 4: growth of red leaf lettuce irrigated with iron agent; format: in vivo; conditions: irrigation once a week, after 19 days of cultivation, in comparison with the other plants
# Method: as §1, §2
# [8] = system: molokheiya; assay: Use Example 1: growth of molokheiya irrigated with iron agent; format: in vivo; conditions: irrigation once a week, after 30 days of cultivation, in comparison with the other plants (no iron agent, iron citrate)
# Method: as §1
# as §2, with “30” for “19”
Substance,index of the plant's aboveground weight [1],index of the plant's root weight [1],change of the Fe^2+ ion concentration of the aqueous solution [2],rooting [3],weight of the aboveground part [3],rooting [4],weight of the aboveground part [4],rooting [5],weight of the aboveground part [5],rooting [6],weight of the aboveground part [6],rooting [7],weight of the aboveground part [7],rooting [8],weight of the aboveground part [8]
iron citrate [reference compound],116,134,not confirmed to increase,–,–,–,–,–,–,–,–,–,–,–,–
sodium ferrous citrate,209,464,–,improvement,increase,improvement,increase,improvement,increase,improvement,increase,improvement,increase,improvement,increase
